# What was measured:
# [1] = target: T1, PG0352 (Porphyromonas gingivalis, UniProt Q7MX62); assay: X-ray crystal structure, […] Å (soaked); format: binding; settings: 10 mM soak, 20 min; sialidase active site; sialidase inhibitor
# T1 construct: gene PG_0352; N-terminal His6, residues 31-526 (CBM 31-176 plus sialidase domain 177-523), signal peptide removed, codon-optimized, pQE80L, E. coli BL21-Star (DE3); monomer, ~52 kDa by SEC
# [2] = target: T1, PG0352; assay: X-ray crystal structure, […] Å (co-crystallized); format: binding; settings: 5 mM ligand; bound in CBM cleft, not the active site
# [3] = test system: Cc1cc(=O)oc2cc(O[C@@]3(C(=O)O)C[C@H](O)[C@@H](NC(=O)CO)[C@H]([C@H](O)[C@H](O)CO)O3)ccc12; assay: purified protein; settings: 10 mM sodium citrate, pH 5.0, 37 °C, 1 min, 5 nM enzyme
# [4] = test system: CC(=O)N[C@H]1[C@H]([C@H](O)[C@H](O)CO)O[C@@](Oc2ccc3c(C)cc(=O)oc3c2)(C(=O)O)C[C@@H]1O; assay: purified protein; settings: 10 mM sodium citrate, pH 5.0, 37 °C, 1 min, 5 nM enzyme
# [5] = target: T1, PG0352; assay: X-ray crystal structure, […] Å (soaked); format: binding; settings: 27 mM soak, 60 min; sialidase active site; alpha anomer
# T1 sequence (Q7MX62 entry or part of it): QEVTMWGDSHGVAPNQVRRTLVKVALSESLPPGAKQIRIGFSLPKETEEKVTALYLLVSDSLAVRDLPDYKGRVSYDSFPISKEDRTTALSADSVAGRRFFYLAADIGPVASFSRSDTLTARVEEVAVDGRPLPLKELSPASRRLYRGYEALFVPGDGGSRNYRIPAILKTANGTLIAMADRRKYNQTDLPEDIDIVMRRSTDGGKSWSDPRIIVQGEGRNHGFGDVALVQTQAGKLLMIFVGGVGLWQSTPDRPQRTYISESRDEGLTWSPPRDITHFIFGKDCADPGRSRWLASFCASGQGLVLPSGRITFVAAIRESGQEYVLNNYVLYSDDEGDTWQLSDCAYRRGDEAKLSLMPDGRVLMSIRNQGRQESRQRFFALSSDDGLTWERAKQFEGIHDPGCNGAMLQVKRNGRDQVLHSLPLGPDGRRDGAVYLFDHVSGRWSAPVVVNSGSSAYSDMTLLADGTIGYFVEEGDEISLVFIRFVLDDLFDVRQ
compound,measurement,setting,value
CC(=O)N[C@H]1[C@H]([C@H](O)[C@H](O)CO)OC(C(=O)O)=C[C@@H]1O [DANA],"X-ray crystal structure, 2.14 Å (soaked)",[1],DANA binds within the sialidase active site in a similar conformation
OCC1(O)OC[C@@H](O)[C@@H](O)[C@@H]1O (some centres unmarked) [fructose],"X-ray crystal structure, 2.29 Å (co-crystallized)",[2],we co-crystallized PG0352 with fructose and determined the structure of the complex
PG0352 (Porphyromonas gingivalis W83),Km,[3],81.65 ± 20.56 µM
same,Km,[4],39.31 ± 6.540 µM
CC(=O)N[C@H]1[C@H]([C@H](O)[C@H](O)CO)OC(O)(C(=O)O)C[C@@H]1O (some centres unmarked) [Neu5Ac],"X-ray crystal structure, 1.93 Å (soaked)",[5],Clear electron density was visible for Neu5Ac bound in its alpha anomeric form
